# Measured values from patent US10414763B2 (CANCER RESEARCH TECHNOLOGY LIMITED, priority 2014, dated 2019).
# Molecular target: T1, full-length human PKCι (Homo sapiens, UniProt P41743)
# T1 construct: Recombinant, full-length human PKCι expressed in Sf21 insect cells is also commercially available; purchased EMD Millipore; host or cells: Sf21 insect cells (baculovirus)
# T1 sequence (P41743 1-596): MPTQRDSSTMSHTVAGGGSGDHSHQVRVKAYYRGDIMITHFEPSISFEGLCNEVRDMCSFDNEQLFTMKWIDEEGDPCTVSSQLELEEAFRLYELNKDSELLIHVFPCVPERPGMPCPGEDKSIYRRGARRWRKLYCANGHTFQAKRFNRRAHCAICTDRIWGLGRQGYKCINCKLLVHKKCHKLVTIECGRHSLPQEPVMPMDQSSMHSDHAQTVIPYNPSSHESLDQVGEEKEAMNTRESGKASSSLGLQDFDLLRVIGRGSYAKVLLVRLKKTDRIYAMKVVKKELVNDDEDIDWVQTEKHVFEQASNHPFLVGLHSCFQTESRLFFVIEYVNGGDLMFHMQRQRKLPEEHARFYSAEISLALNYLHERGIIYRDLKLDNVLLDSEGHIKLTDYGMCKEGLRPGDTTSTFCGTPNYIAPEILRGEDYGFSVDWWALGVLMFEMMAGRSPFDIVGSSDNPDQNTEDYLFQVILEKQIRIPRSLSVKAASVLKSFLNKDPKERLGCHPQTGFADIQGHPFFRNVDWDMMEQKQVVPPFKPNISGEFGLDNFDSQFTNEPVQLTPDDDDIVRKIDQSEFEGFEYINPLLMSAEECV
# Experiment: PKCι IC50 IMAP fluorescence polarisation assay, full-length enzyme, 150 μM ATP
# Assay type: biochemical
# Conditions: read-out: IC50 in IMAP assay against full length PKCi at 150 μM ATP
# Summary of the method: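 IMAP fluorescence polarisation kinase assay: 15 pM baculovirus-expressed human PKCiota with 100 nM FAM-pseudosubstrate peptide and 150 μM ATP, 1 h at 25 °C. IMAP detection reagent then 2 h at 25 °C before FP measurement. Inhibition referenced to no-compound and no-enzyme controls for IC50 fitting.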
row,Structure (SMILES),IC50 [nM]
1,"Cc1cc2c(-c3nc(NC4CCNCC4(C)C)c4c(C5CCC5)cncc4n3)ccnc2[nH]1 (stereo not drawn) [Example 101, [5-Cyclobutyl-2-(2-methyl-1H-pyrrolo[2,3-b]pyridin-4-yl)-pyrido[3,4-d]pyrimidin-4-yl]-(3,3-dimethyl-piperidin-4-yl)-amine]",< 100
2,"C[C@@H]1CNCC[C@@H]1Nc1nc(-c2ccnc(Nc3nc(F)ccc3F)c2)nc2cncc(C3CCC3)c12 (single isomer, unassigned) [Example 297, {5-Cyclobutyl-2-[2-(3,6-difluoro-pyridin-2-ylamino)-pyridin-4-yl]-pyrido[3,4-d]pyrimidin-4-yl}-((3R,4S)-3-methyl-piperidin-4-yl)-amine or enantiomer]",< 100
3,"COCc1ccccc1-c1cc2c(-c3nc(N[C@H]4CCNCC4(C)C)c4c(C5CC5)cncc4n3)ccnc2[nH]1 [Example 357, {5-Cyclopropyl-2-[2-(2-methoxymethyl-phenyl)-1H-pyrrolo[2,3-b]pyridin-4-yl]-pyrido[3,4-d]pyrimidin-4-yl}-((S)-3,3-dimethyl-piperidin-4-yl)-amine]",< 100
4,"FC(F)(F)c1cc2c(-c3nc(N4CC[C@H]5NCC[C@H]54)c4c(C5CC5)cncc4n3)ccnc2[nH]1 (racemic) [Example 19, (±)-5-Cyclopropyl-4-(3,6-cis)-hexahydro-pyrrolo[3,2-b]pyrrol-1-yl-2-(2-trifluoromethyl-1H-pyrrolo[2,3-b]pyridin-4-yl)-pyrido[3,4-d]pyrimidine]",< 100
5,"CC1(C)CNCCC1Nc1nc(-c2ccnc(Nc3nc(F)c(F)cc3F)c2)nc2cncc(C3CCC3)c12 (stereo not drawn) [Example 71, {5-Cyclobutyl-2-[2-(3,5,6-trifluoro-pyridin-2-ylamino)-pyridin-4-yl]-pyrido[3,4-d]pyrimidin-4-yl}-(3,3-dimethyl-piperidin-4-yl)-amine]",< 100
6,"CC1(C)CNCC[C@@H]1Nc1nc(-c2ccnc3[nH]c(C(=O)N4CCCCCC4)cc23)nc2cncc(C3CC3)c12 [Example 363, Azepan-1-yl-{4-[5-cyclopropyl-4-((S)-3,3-dimethyl-piperidin-4-ylamino)-pyrido[3,4-d]pyrimidin-2-yl]-1H-pyrrolo[2,3-b]pyridin-2-yl}-methanone]",< 100
7,"O[C@H]1CNC[C@@H]1Nc1nc(-c2ccnc(Nc3nc(F)ccc3F)c2)nc2cncc(C3CCC3)c12 (racemic) [Example 285, rac-(3S,4S)-4-{5-Cyclobutyl-2-[2-(3,6-difluoro-pyridin-2-ylamino)-pyridin-4-yl]-pyrido[3,4-d]pyrimidin-4-ylamino}-pyrrolidin-3-ol]",< 100
8,"NC1CCN(c2nc(-c3ccnc4[nH]c5ccccc5c34)nc3cncc(C(F)(F)F)c23)C1 (stereo not drawn) [Example 221, 1-[2-(9H-Pyrido[2,3-b]indol-4-yl)-5-trifluoromethyl-pyrido[3,4-d]pyrimidin-4-yl]-pyrrolidin-3-ylamine]",100 to 1000
9,C[C@@H]1CNCC[C@@H]1Nc1nc(-c2ccnc3[nH]c(C(F)(F)F)cc23)nc2cncc(C3CCC3)c12 (racemic) [Example 263],< 100
10,"CN(c1nc(-c2ccnc3[nH]c(C(C)(C)C)cc23)nc2cncc(C3CCC3)c12)C1CCNCC1 [Example 213, [2-(2-tert-Butyl-1H-pyrrolo[2,3-b]pyridin-4-yl)-5-cyclobutyl-pyrido[3,4-d]pyrimidin-4-yl]-methyl-piperidin-4-yl-amine]",< 100
11,"Clc1cc2c(-c3nc(N4CCNCC4)c4c(C5CCC5)cncc4n3)ccnc2[nH]1 [Example 130, 2-(2-Chloro-1H-pyrrolo[2,3-b]pyridin-4-yl)-5-cyclobutyl-4-piperazin-1-yl-pyrido[3,4-d]pyrimidine]",< 100
12,"C[C@@H]1CNCC[C@@H]1Nc1nc(-c2ccnc(Nc3ncc(F)cc3F)c2)nc2cncc(C3CC3)c12 (racemic) [Example 300, {5-Cyclopropyl-2-[2-(3,5-difluoro-pyridin-2-ylamino)-pyridiri-4-yl]-pyrido[3,4-d]pyrimidin-4-yl}-(rac-(3R,4S)-3-methyl-piperidin-4-yl)-amine]",100 to 1000
13,"Clc1ccc(-c2cc3c(-c4nc(N5CCNCC5)c5c(C6CC6)cncc5n4)ccnc3[nH]2)cc1 [Example 139, 2-[2-(4-Chloro-phenyl)-1H-pyrrolo[2,3-b]pyridin-4-yl]-5-cyclopropyl-4-piperazin-1-yl-pyrido[3,4-d]pyrimidine]",< 100
14,"CC1(C)CNCCC1Nc1nc(-c2ccnc3[nH]c(-c4cc(Cl)ccc4Cl)cc23)nc2cncc(C3CC3)c12 (stereo in doubt) [Example 353, {5-Cyclopropyl-2-[2-(2,5-dichloro-phenyl)-1H-pyrrolo[2,3-b]pyridin-4-yl]-pyrido[3,4-d]pyrimidin-4-yl}-((S)-3,3-dimethyl-piperidin-4-yl)-amine]",< 100

# Other lines, results leading:
row,IC50 [nM],Structure (SMILES)
1,< 100,"C[C@@]1(O)CNCC[C@H]1Nc1nc(-c2ccnc3[nH]c4ccccc4c23)nc2cncc(C3CC3)c12 (racemic) [Example 247, rac-(3R,4R)-4-[5-Cyclopropyl-2-(9H-pyrido[2,3-b]indol-4-yl)-pyrido[3,4-d]pyrimidin-4-ylamino]-3-methyl-piperidin-3-ol]"
2,< 100,"C[C@@H]1CNCC[C@H]1Nc1nc(-c2ccnc(Nc3ncccc3F)c2)nc2cncc(C3CC3)c12 (racemic) [Example 302, {5-Cyclopropyl-2-[2-(3-fluoro-pyridin-2-ylamino)-pyridin-4-yl]-pyrido[3,4-d]pyrimidin-4-yl}-(rac-(3R,4R)-3-methyl-piperidin-4-yl)-amine]"
3,< 100,"CC1(C)CNCC[C@@H]1Nc1nc(-c2ccnc(Nc3ncccc3F)c2)nc2cncc(C3CC3)c12 [Example 390, {5-Cyclopropyl-2-[2-(3-fluoro-pyridin-2-ylamino)-pyridin-4-yl]-pyrido[3,4-d]pyrimidin-4-yl}-((S)-3,3-dimethyl-piperidin-4-yl)-amine]"
4,< 100,"CC1(C)CNCCC1Nc1nc(-c2ccnc(NCc3c(F)cccc3F)c2)nc2cncc(C3CCC3)c12 (stereo not drawn) [Example 96, {5-Cyclobutyl-2-[2-(2,6-difluoro-benzylamino)-pyridin-4-yl]-pyrido[3,4-d]pyrimidin-4-yl}-(3,3-dimethyl-piperidin-4-yl)-amine]"
5,< 100,"CC1(C)CNCC[C@@H]1Nc1nc(-c2ccnc(Nc3ncc(Cl)cc3Cl)c2)nc2cncc(C3CC3)c12 [Example 340, 5-Cyclopropyl-2-[2-[(3,5-dichloro-2-pyridyl)amino]-4-pyridyl]-N-[(4S)-3,3-dimethyl-4-piperidyl]pyrido[3,4-d]pyrimidin-4-amine]"
6,< 100,"c1cc(-c2nc(N3CCNCC3)c3c(C4CCC4)cncc3n2)cc(Nc2nc(C3CC3)cs2)n1 [Example 38, [4-(5-Cyclobutyl-4-piperazin-1-yl-pyrido[3,4-d]pyrimidin-2-yl)-pyridin-2-yl]-(4-cyclopropyl-thiazol-2-yl)-amine]"
7,< 100,"CC1(C)CNCC[C@@H]1Nc1nc(-c2ccnc(Nc3ncc(C#N)cc3F)c2)nc2cncc(C3CC3)c12 [Example 333, 6-[[4-[5-Cyclopropyl-4-[[(4S)-3,3-dimethyl-4-piperidyl]amino]pyrido[3,4-d]pyrimidin-2-yl]-2-pyridyl]amino]-5-fluoro-pyridine-3-carbonitrile]"
8,< 100,"Fc1ccc(F)c(Nc2cc(-c3nc(N4CCC5NCCC54)c4c(C5CCC5)cncc4n3)ccn2)n1 (stereo not drawn) [Example 97, {4-[5-Cyclobutyl-4-(hexahydro-pyrrolo [3,2-b]pyrrol-1-yl)-pyrido[3,4-d]pyrimidin-2-yl]-pyridin-2-yl}-(3,6-difluoro-pyridin-2-yl)-amine]"
9,< 100,O[C@]12CCN(c3nc(-c4ccnc(Nc5ncn(-c6ccccc6)n5)c4)nc4cncc(C5CC5)c34)[C@H]1CCNC2 [Example 236]
10,< 100,"c1ccc(-n2cnc(Nc3cc(-c4nc(N5CCC6CNCCC65)c5c(C6CC6)cncc5n4)ccn3)n2)cc1 (stereo not drawn) [Example 235, [4-[5-Cyclopropyl-4-(octahydro-pyrrolo[3,2-c]pyridin-1-yl)-pyrido[3,4-d]pyrimidin-2-yl]-pyridin-2-yl}-(1-phenyl-1H-1,2,4-triazol-3-yl)-amine]"
11,< 100,"CC1(C)CNCC[C@@H]1Nc1nc(-c2ccnc(Nc3ncccc3Cl)c2)nc2cncc(C3CCC3)c12 [Example 336, 2-[2-[(3-Chloro-2-pyridyl)amino]-4-pyridyl]-5-cyclobutyl-N-[(4S)-3,3-dimethyl-4-piperidyl]pyrido [3,4-d]pyrimidin-4-amine]"
12,< 100,"CC1(C)CNCCC1Nc1nc(-c2ccnc(Nc3cc(C(F)(F)F)ccn3)c2)nc2cncc(C3CC3)c12 (stereo not drawn) [Example 51, {5-Cyclopropyl-2-[2-(4-trifluoromethyl-pyridin-2-ylamino)-pyridin-4-yl]-pyrido[3,4-d]pyrimidin-4-yl}-(3,3-dimethyl-piperidin-4-yl)-amine]"
13,< 100,"CC1(C)CNCCC1Nc1nc(-c2ccnc(Nc3ncc(F)cc3F)c2)nc2cncc(C3CCC3)c12 (stereo not drawn) [Example 68, {5-Cyclobutyl-2-[2-(3,5-difluoro-pyridin-2-ylamino)-pyridin-4-yl]-pyrido[3,4-d]pyrimidin-4-yl}-(3,3-dimethyl-piperidin-4-yl)-amine]"
